Reference: patent US20260184733A1, “CRYSTAL FORM OF NEUROKININ-1 ANTAGONIST PRODRUG COMPOUND” (JIANGSU HENGRUI PHARMACEUTICALS CO., LTD., priority 2022, published 2026)

Assays:
Format in all cases: physicochemical
[1] = Solvent residue of the crystal forms determined by gas chromatography
Protocol: The solvent residue of the crystal form of the compound represented by formula I was determined by gas chromatography, as shown in the table below.

[2] = Dissolution of the raw material in 50% tert-butanol solution when preparing the lyophilized composition; settings: 4.36% (w/v) in 50% tert-butanol with 5% mannitol, stirred at room temperature
Protocol: Tert-butanol and water were mixed at a volume ratio of 1:1 to form a 50% tert-butanol solution. 90% of the target volume of the solution was taken, and 5% (mass volume percentage) of mannitol and 4.36% of the raw material of the compound represented by formula I were added. The mixture was stirred at room temperature for dissolution (dissolution being considered as the absence of significant blocky or flocculent insoluble substances in the solution). The pH was adjusted to 5 with dilute hydrochloric acid or sodium hydroxide, filtration was performed with a […] organic filtration membrane to obtain a clear solution, and the volume of the clear solution was made constant with 50% tert-butanol. The above-mentioned solution was stored at 4° C. before subpackaging. After subpackaging according to the target volume, half of a stopper was pressed, and a freeze-drying procedure was run. After the completion of the procedure, nitrogen was filled, the remaining stopper was pressed, and the freeze-dried compounds were taken out of the box.

[3] = Crystal form conversion on stirring in ethyl acetate at room temperature; settings: 1.0 g in 1.5 mL ethyl acetate, stirred at room temperature, filtered, dried under vacuum
Protocol: 1.0 g of the crystal form I of the compound represented by formula I was added to 1.5 mL of ethyl acetate, and the mixture was stirred at room temperature, filtered, and dried under vacuum.
1.0 g of the crystal form III of the compound represented by formula I was added to 1.5 mL of ethyl acetate, and the mixture was stirred at room temperature, filtered, and dried under vacuum.

Question: Which results are given for C[C@@H](OC[C@@]1(c2ccccc2)CC[C@]2(CCC(=O)N2)CN1C(=O)OCOP(=O)(O)O)c1cc(C(F)(F)F)cc(C(F)(F)F)c1 [Crystal form II]?
Answer: Solvent residue, comparison of the crystal forms [1]: lowest solvent residue; Solvent residue: Ethyl acetate [1]: 0.0105%; Solvent residue: Ethylene glycol dimethyl ether [1]: Not detected; Solvent residue: Methyl tert-butyl ether [1]: 0.1867%; Dissolution behaviour of the raw material [2]: dissolved faster, no agglomeration occurred

Question: Which “Dissolution behaviour of the raw material” value [2] does the source give for C[C@@H](OC[C@@]1(c2ccccc2)CC[C@]2(CCC(=O)N2)CN1C(=O)OCOP(=O)(O)O)c1cc(C(F)(F)F)cc(C(F)(F)F)c1 [amorphous form] here?
Answer: agglomerated in a large amount in the solution, resulting in the inability to completely dissolve the raw material

Question: For C[C@@H](OC[C@@]1(c2ccccc2)CC[C@]2(CCC(=O)N2)CN1C(=O)OCOP(=O)(O)O)c1cc(C(F)(F)F)cc(C(F)(F)F)c1 [Crystal form I], which “Solvent residue: Ethyl acetate” value [1] is on record?
Answer: 0.0293%

Question: What about the “Solvent residue: Ethylene glycol dimethyl ether” value [1] of the same molecule?
Answer: Not detected

Question: And the “Solvent residue: Isopropyl ether” value [1]?
Answer: 12.0%

Question: And the “Crystal form after slurrying” value [3]?
Answer: conversion to the crystal form II

Question: For C[C@@H](OC[C@@]1(c2ccccc2)CC[C@]2(CCC(=O)N2)CN1C(=O)OCOP(=O)(O)O)c1cc(C(F)(F)F)cc(C(F)(F)F)c1 [Crystal form III], which “Solvent residue: 1,4-Dioxane” value [1] is on record?
Answer: 6.3%

Question: What about the “Solvent residue: Ethylene glycol dimethyl ether” value [1] of the same molecule?
Answer: Not detected

Question: And the “Crystal form after slurrying” value [3]?
Answer: conversion to the crystal form II
